For this test, the system named is obese mouse model. Briefly: Administration test in obese mouse model (weight, food intake). The settings on record: for obese mouse weight: four weeks. In kind it is in vivo, C57BL/6 mice. As to the method: 2. Method: 60 C57BL/6 mice (aged 3 weeks, male, with a weight of 8.3 g each) were adaptively fed with 12% kcal normal diet for one week, and randomly divided into 6 groups, each consisting of 10 mice. One group (ND) continued to be fed with normal diet, the rest five groups (HFD I˜V) were fed with 45% kcal high-fat diet.
In the whole test process the mice kept raised in the following environment: temperature: 23±3° C.; humidity: 50±5%; bright and dim alternating cycle: 12 h/12 h; freely available to diet and drinking water in the whole process.
2. Method: ND and HFD I were respectively taken as normal and high-fat diet blank control groups, and were treated with 0.5% sodium carboxymethyl cellulose solution (5 ml/kg/day); HFD II˜IV were taken as groups of recipients, and were treated with NST-2K (20, 60, 100 mg/kg/day); HFD V was taken as a positive control group, and treated with Orlistat (100 mg/kg/day). All the above drugs dissolved in aqueous solution of 0.5% sodium carboxymethyl cellulose and were administered. The administration remained four weeks. In each week average weight and food intake were kept in record until the phase of administration ended.

Molecules are shown by their SMILES.

`CCCCCCCCCCCCCCCCCC(=O)N[C@@H](Cc1ccc(O)cc1)C(=O)[O-].[K+]` [NsTyr-2K, N-stearoyl tyrosine potassium salt]: the obese mouse weight entry runs as follows: (100 mg/kg/day) “can reduce obese mouse weight”; (20, 60 mg/kg/day) “can inhibit weight gain in obese mice”. Further, the “appetite (average daily food intake)” value (4-week administration, high-fat diet groups) is given as “neither NST-2K nor Orlistat suppressed appetite”.
